# Data published in patent publication US20230107216A1, “PANTETHEINE DERIVATIVES AND USES THEREOF” (Comet Therapeutics, Inc., priority 2018, published 2023).
# Read-outs that look alike come from different tables or passages of the source.
# How the values were obtained:
# [1] = system: Propionic Acidemia (PA) primary fibroblasts GM00371; experiment: Mitochondrial respiration, XFe96 Extracellular Flux Analyzer (OCR/ECAR), PA fibroblasts GM00371; type: cell-based; conditions: Homo sapiens, Fibroblast
# [2] = system: primary fibroblasts (healthy controls and PA, MMA, BCKDK, PDH, VLCAD, LS, PC, GA, VLCFA, KSS, FXN, HD); experiment: Measurement of ROS (H2DCFDA) in primary fibroblasts; type: cell-based, human; conditions: Homo sapiens, procedure Example 812, Assay Condition C
# In short: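 Patient and healthy-control primary fibroblasts switched to supplemented DMEM 24 h before assay, then treated with compound (10 μM) plus H2DCFDA (22 μM) for 2 h (PA, MMA lines) or 24 h (other lines). Kinetic fluorescence at 492/527 nm over 60 min; only live cells analysed.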
# [3] = system: Subnormal activation of pyruvate dehydrogenase complex (PDH) primary fibroblasts GM01503 (GM1503A); experiment: Total NAD+ + NADH and NAD+ (NAD/NADH-Glo), PDH fibroblasts GM01503; type: cell-based; conditions: Homo sapiens, Fibroblast, PDH GM1503A P10, assay condition A, 24h, read-out: Increase in Total NAD+ + NADH
# Method: (§1) Primary adherent fibroblasts were cultured in minimum essential medium (MEM) (Gibco, 25030081) supplemented with 2 mM L-Glutamine (Gibco, 25030081), 15% fetal bovine serum (FBS) (Gibco, 26400044) and 1% penicillin/streptomycin (Gibco, 5140122) at 37° C. and 5% CO2. Cells were collected for either passaging or experiment at ˜70-80% confluence. Cells were obtained by trypsinization and seeded in cell culture microplates either white plate (Thermo Fisher Scientific, 152028) for luminescent measurement or black plate (Thermo Fisher Scientific, 165305) for fluorescent based read out for different assays listed below. Cells were obtained by trypsinization and […] were seeded and allowed to adhere for 16-18 hours to have confluency around 70-80% in the cell well with culture media. After 24 hours prior to measurements (37° C., 5% CO2) media was changed to Dulbecco's Modified Eagle Medium (DMEM, Agilent Seahorse cat #103575-100) with the appropriate supplements as stated below.
# (§2) Primary fibroblasts assayed were Propionic Acidemia (PA) (GM03590 Coriell Institute for Medical Research, Tsi 6337 Trans-Hit Bio), Methylmalonic Acidemia (MMA) (Tsi 5224 Trans-Hit Bio), Subnormal activation of pyruvate dehydrogenase complex (PDH) (GM01503 Coriell Institute for Medical Research), Very long-chain acyl-CoA dehydrogenase (VLCAD) (GM17475), Leigh Syndrome (LS) (GM03672, GM13411 Coriell Institute for Medical Research), Pyruvate Carboxylase Deficiency (PC) (GM00444 Coriell Institute for Medical Research). 10 μM of Compounds were added for 2 hours in PA, MMA lines and for 24h for the other fibroblast lines.
# (§3) Assay was performed according to manufacturer instructions (NAD/NADH-Glo Assay Promega, G9072). The NAD/NADH-Glo Assay is a bioluminescent assay for detecting total oxidized and reduced nicotinamide adenine dinucleotides (NAD+ and NADH, respectively) from which ratio of NAD/NADH can be calculated. Briefly, for every assay a 12-point standard curve was prepared ranging from 400 nM to 0.625 nM. Media was removed and replaced with 50 μl of PBS for both assays.
# (§4) For individual NAD+ and NADH measurement, 50 μl of 1% DTAB (Sigma Cat #D5047) (cell lysis reagent) in 0.2N NaOH was added to the plate and a total 100 μl of lysate was split into two plates with 50 μl each. 25 μl of 0.4N HCl were added to the NAD+ plate and both NAD+ and NADH plate were heated at 60° C. for 15 minutes. The acid and heat treatment destroyed NADH allowing individual NAD+ measurement while heating in basic conditions destroys NAD+ allowed individual NADH measurements. The plates were allowed to come to room temperature for 10 minutes and Trizma base (Sigma, T1699) was added to the NAD+ plate to neutralize the acid and HCl Trizma hydrochloride (Sigma, T2694) was added to the NADH plate. The NADNADH glo reagent was prepared by adding: 625 μl of NAD cycling substrate, 125 μl of reductase, 125 μl of reductase substrate, 125 μl NAD cycling enzyme to total of the 25 ml of NAD GLO reagent. 1:1 ratio of total volume of reagent was added to the individual NAD+, NADH measurement (total 100 μl) and 50 μl for total NAD/NAH measurement. Luminescence was read between 30-60 minutes within the linear range.
# (§5) A total dead cell count was performed as described in Example 817 and only alive cells were used for analysis.
# [4] = system: Very long-chain acyl-CoA dehydrogenase (VLCAD) primary fibroblasts GM17475; experiment: Total NAD+ + NADH and NAD+ (NAD/NADH-Glo), VLCAD fibroblasts GM17475; type: cell-based; conditions: Homo sapiens, Fibroblast, VLCAD GM17475 P10, assay condition A, 24h, read-out: Increase in Total NAD+ + NADH
# Method: as §1, §2, §3, §4, §5
# [5] = system: HepG2 cells; experiment: Glucose uptake (Glucose Uptake-Glo); type: cell-based; conditions: Homo sapiens, read-out: % increase in Glucose Uptake
# [6] = system: Venular Endothelial cells (HUVEC) (3C system); experiment: BioMAP 3C system (IL-1β, TNFα, IFNγ); type: cell-based, human; conditions: 10 uM; procedure of Example 825
# Method: (§6) The BioMAP platform (BioMAP® Diversity PLUS® Panel from Eurofins) is an in vitro phenotypic profiling technology that screened the compounds of the present disclosure (hereafter indicated as test agents) in human primary cell-based systems modelling complex tissue and disease states. The BioMAP assays were performed using the Eurofin's BioMAP Technology Platform as (see references 1 to 13 in the example 824 section) to model different diseases on primary cell-based model systems. These systems consisted of either single primary cell types or co-culture cells. Adherent cell types were cultured or co-cultured in 96 or 384-well plates until confluence followed by the addition of compounds prepared in DMSO at a final concentration of ≤0.1%. In each cell-based system, primary cells from heathy donors (2-6 donors) were pooled and treated with compounds at 1 and 10 μM dose 1h prior to stimulation and remain in culture as indicated in Example 825, Example 826, Example 827, Example 828, Example 829, Example 830, Example 831, Example 832, Example 833, Example 834, Example 835, Example 836 and Example 837. For on the BioMAP® Diversity PLUS® Panel, please see the following references, which are incorporate herein.
# Following the general procedure as described in Example 824, Venular Endothelial cells (HUVEC) (3C system) were treated with IL-1β, TNFα, IFNγ for 24h to model Th1 driven cardiovascular and chronic inflammation diseases in the presence or absence of the compounds. Biomarker read out were; Tissue Factor, ICAM-1, E-selectin, uPAR (CD87), IL-8, MIG, HLA-DR, proliferation and SRB (Sulfo-rhodamine i.e. staining for protein content).
# [7] = system: Venular Endothelial cells (HUVEC) (4H system); experiment: BioMAP 4H system (IL-4 and histamine); type: cell-based, human; conditions: 10 uM; procedure of Example 826
# [8] = system: Peripheral blood mononuclear cells co-cultured with venular endothelial cells (HUVEC) (LPS system); experiment: BioMAP LPS system; type: cell-based, human; conditions: procedure of Example 827
# [9] = system: Bronchial epithelial cells co-cultured with dermal fibroblast (BF4T system); experiment: BioMAP BF4T system (TNFα and IL-4); type: cell-based, human; conditions: 10 uM, procedure of Example 830
# [10] = system: Bronchial epithelial cells (BE3C system); experiment: BioMAP BE3C system (IL-1β, TNFα, IFNγ); type: cell-based, human; conditions: Homo sapiens, Epithelial cell, 24 h; 10 uM; procedure of Example 831; read-out: % decrease in MMP-1
# [11] = system: Coronary artery smooth muscle cells (CASM3C system); experiment: BioMAP CASM3C system (IL-1β, TNFα, IFNγ); type: cell-based, human
# [12] = system: Dermal fibroblasts (HDF3CGF system); experiment: BioMAP HDF3CGF system (IL-1β, TNFα, IFNγ, EGF, bFGF, PDGF-BB); type: cell-based, human; conditions: Homo sapiens, Fibroblast, 72 h; 10 uM; read-out: % increase in 72 Hour Proliferation
# [13] = system: Keratinocytes co-cultured with dermal fibroblast (KF3CT system); experiment: BioMAP KF3CT system (IL-1β, TNFα, IFNγ, TGFβ); type: cell-based, human
# Method: as §6
# Following the general procedure as described in Example 824, Keratinocytes were co-cultured with dermal fibroblast (KF3CT system) and treated with IL-1β, TNFα, IFNγ and TGFβ for 24h in the presence or absence of the compounds to model psoriasis, dermatitis and skin biology. Biomarkers read out were; MCP-1, ICAM-1, IP-10, IL-8, MIG, IL-1α, MMP-9, PAI-1, SRB, TIMP-2, uPA.
# [14] = system: Peripheral blood mononuclear cells co-cultured with B-cells (BT system)
# [15] = system: Peripheral blood mononuclear cells co-cultured with B-cells (BT system); experiment: cells; conditions: Homo sapiens, 72 h, read-out: % decrease in sIL-17
smiles,measurement,setting,value
"CC(=O)C(C(C)=O)C(=O)SCCNC(=O)CCNC(=O)[C@H](O)C(C)(C)CO [Compound 397, (2R)—N-[2-([2-[(2-acetyl-3-oxobutanoyl)sulfanyl]ethyl]arbamoyl)ethyl]-2,4-dihydroxy-3,3-dimethylbutanamide]",activation at 50 µM,"[1]; assay condition C (10 mM glucose, 10% FBS), read-out: Increase in Maximal Respiratory Capacity AUC",≥ 10%
same,inhibition at 10 µM,"[2]; Fibroblast, PDH GM01503, read-out: Decreased ROS by at least 10%",≥ 10%
same,inhibition at 10 µM,"[2]; Fibroblast, PDH GM01503, read-out: Decreased ROS by at least 30%",≥ 30%
same,inhibition at 10 µM,"[2]; FXN GM04078, read-out: Decreased ROS by at least 30%",≥ 30%
same,activation at 10 µM,[3],≥ 10%
same,activation at 10 µM,[4],≥ 10%
same,activation at 10 µM,[5]; 10 uM,≥ 20%
"COC(=O)CCC(=O)SCCNC(=O)CCNC(=O)[C@H](OC(C)=O)C(C)(C)CO [Compound 213, methyl 4-[(2-[3-[(2R)-2-(acetyloxy)-4-hydroxy-3,3-dimethylbutanamido]propanamido]ethyl)sulfanyl]-4-oxobutanoate]",activation at 10 µM,"[1]; assay condition A (10 mM glucose, 2 mM L-glutamine, 1 mM pyruvate, 10% FBS), 10 μM, read-out: Increase in Spare Capacity AUC",≥ 10%
same,activation at 50 µM,"[1]; assay condition D (1 mM glucose, 10% FBS), read-out: Increase in Spare Capacity AUC",≥ 10%
same,activation at 50 µM,[5]; 50 uM,≥ 30%
same,% decrease in IL-8,[6],≥10%
same,% decrease in MCP-1,[7],≥10%
same,% decrease in M-CSF,[8]; 1 uM,≥10%
same,inhibition at 1 µM,"[8]; Homo sapiens, HUVEC, 24 h, 1 uM, read-out: % decrease in IL-8",≥ 10%
same,inhibition at 10 µM,"[8]; Homo sapiens, HUVEC, 24 h, read-out: % decrease in IL-1α",≥ 20%
same,inhibition at 10 µM,"[8]; Homo sapiens, HUVEC, 24 h, read-out: % decrease in TissueFactor",≥ 10%
same,% decrease in MMP-9,[9],≥10%
same,activation at 10 µM,"[9]; Homo sapiens, 24 h, read-out: % increase in VCAM-1",≥ 10%
same,inhibition at 10 µM,[10],≥ 10%
same,% decrease in HLA-DR,[11]; 1 uM,≥10%
same,% decrease in Tissue Factor,[11]; 1 uM,≥10%
same,% decrease in M-CSF,"[11]; 1 uM, procedure of Example 832",≥10%
same,% decrease in VCAM-1,"[11]; 1 uM, procedure of Example 832",≥10%
same,% decrease in CXCL9,[11]; 10 uM,≥10%
same,inhibition at 10 µM,"[11]; Homo sapiens, 24 h, 10 uM, read-out: % decrease in Thrombomodulin",≥ 20%
same,activation at 10 µM,[12],≥ 10%
same,% decrease in MMP-9,[13]; 1 uM,≥10%
same,% decrease in MCP-1,"[13]; 10 uM, procedure of 834",≥10%
same,% decrease in sIL-2,"[14]; 1 uM, procedure of Example 829",≥10%
same,% decrease in sTNFα,"[14]; 1 uM, procedure of Example 829",≥10%
same,% decrease in PBMC cytotoxicity,"[14]; human, 72 h, 1 µM",≥10%
same,inhibition at 1 µM,[15],≥ 20%
